Laboratory results from patent publication US11524940B1, “Inhibitors of cysteine proteases and methods of use thereof” (priority 2020, dated 2022).

Experiments:
SARS-CoV2 Mpro = SARS-CoV2 Mpro (Severe acute respiratory syndrome coronavirus 2 (2019-nCoV) (SARS-CoV-2), UniProt P0DTD1); assay: COVID-19 (SARS-CoV2) Mpro enzymatic assay; format: biochemical; settings: 25 nM Mpro, 25 μM substrate
229E Mpro = 229E Mpro (Human coronavirus 229E (HCoV-229E), UniProt P0C6X1); assay: 229E Mpro activity; format: biochemical; settings: read-out: 229E Mpro EC50
229E Mpro, sequence (P0C6X1 2966-3267 limits assumed): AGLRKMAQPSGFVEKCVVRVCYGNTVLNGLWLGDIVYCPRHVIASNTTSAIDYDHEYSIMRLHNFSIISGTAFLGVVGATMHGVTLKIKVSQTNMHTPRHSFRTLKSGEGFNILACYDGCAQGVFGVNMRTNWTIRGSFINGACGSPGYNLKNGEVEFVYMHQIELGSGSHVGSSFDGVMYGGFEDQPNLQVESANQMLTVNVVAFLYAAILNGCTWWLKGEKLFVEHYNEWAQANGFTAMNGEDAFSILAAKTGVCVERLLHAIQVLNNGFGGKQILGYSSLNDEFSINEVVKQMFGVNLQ
Procedure: Compounds are assayed using standard methods to assess compound activity and IC50. […] The assay buffer contains 20 mM of Tris-HCl (pH 7.3), 100 mM of NaCl, 1 mM of EDTA, 5mM of TCEP and 0.1% BSA.

N#C[C@H](C[C@@H]1CCNC1=O)NC(=O)C1CC2(CCC2)CN1C(=O)c1cc2ccc(Cl)cc2[nH]1 (single isomer, unassigned) [990 (Isomer 2)]
IC50 (SARS-CoV2 Mpro): < 2 µM | EC50 (229E Mpro): < 2 µM

COc1ccc(Cl)c2[nH]c(C(=O)N3CC4(CCC4)CC3C(=O)N[C@H](C#N)C[C@@H]3CCNC3=O)cc12 (single isomer, unassigned) [992 (Isomer 1)]
IC50 (SARS-CoV2 Mpro): < 2 µM | EC50 (229E Mpro): < 2 µM

COc1ccc(Cl)c2[nH]c(C(=O)N3CC4(CCC4)CC3C(=O)N[C@H](C#N)C[C@@H]3CCNC3=O)cc12 (single isomer, unassigned) [992 (Isomer 2)]
IC50 (SARS-CoV2 Mpro): > 30 µM | EC50 (229E Mpro): > 30 µM

CC1(C)CC(C[C@@H](C#N)NC(=O)[C@H](CC2CC2)NC(=O)c2cc3cccc(Cl)c3[nH]2)C(=O)N1 (single isomer, unassigned) [1053 (Isomer 1)]
IC50 (SARS-CoV2 Mpro): 2 to 10 µM | EC50 (229E Mpro): > 30 µM

COc1cccc2[nH]c(C(=O)N[C@@H](CC3CC3)C(=O)N[C@](C)(C#N)CC3CCNC3=O)cc12 (single isomer, unassigned) [1055 (Isomer 2)]
IC50 (SARS-CoV2 Mpro): > 30 µM | EC50 (229E Mpro): > 30 µM

COc1cccc2[nH]c(C(=O)N[C@@H](CC3CC3(F)F)C(=O)N[C@H](C#N)C[C@@H]3CCCNC3=O)cc12 (single isomer, unassigned) [1059 (Isomer 1)]
IC50 (SARS-CoV2 Mpro): < 2 µM | EC50 (229E Mpro): < 2 µM

COc1cccc2[nH]c(C(=O)N[C@@H](CC3CC3(F)F)C(=O)N[C@H](C#N)C[C@@H]3CCCNC3=O)cc12 (single isomer, unassigned) [1059 (Isomer 2)]
IC50 (SARS-CoV2 Mpro): 10 to 30 µM | EC50 (229E Mpro): 10 to 30 µM

COc1cccc2[nH]c(C(=O)N3CC4(CCCCC4)CC3C(=O)N[C@H](C#N)CC3CCC(C)(C)NC3=O)cc12 (single isomer, unassigned) [1111 (Isomer 1)]
IC50 (SARS-CoV2 Mpro): < 2 µM | EC50 (229E Mpro): 2 to 10 µM

COc1cccc2[nH]c(C(=O)N3CC4(CCCCC4)CC3C(=O)N[C@H](C#N)CC3CCC(C)(C)NC3=O)cc12 (single isomer, unassigned) [1111 (Isomer 2)]
IC50 (SARS-CoV2 Mpro): > 30 µM | EC50 (229E Mpro): > 30 µM

COc1cccc2[nH]c(C(=O)N3CC4(CCCCC4)CC3C(=O)N[C@H](C#N)CC3CCC(C)(C)NC3=O)cc12 (single isomer, unassigned) [1111 (Isomer 3)]
IC50 (SARS-CoV2 Mpro): < 2 µM | EC50 (229E Mpro): 2 to 10 µM

COc1cccc2[nH]c(C(=O)N3CC4(CCCCC4)CC3C(=O)N[C@H](C#N)CC3CCC(C)(C)NC3=O)cc12 (single isomer, unassigned) [1111 (Isomer 4)]
IC50 (SARS-CoV2 Mpro): > 30 µM | EC50 (229E Mpro): > 30 µM

COc1cc(Cl)c2[nH]c(C(=O)N3CC4(CCCCC4)CC3C(=O)N[C@H](C#N)C[C@@H]3CCCNC3=O)cc2c1 (single isomer, unassigned) [1147A (Isomer 1)]
IC50 (SARS-CoV2 Mpro): < 2 µM | EC50 (229E Mpro): < 2 µM

COc1cc(Cl)c2[nH]c(C(=O)N3CC4(CCCCC4)CC3C(=O)N[C@H](C#N)C[C@@H]3CCCNC3=O)cc2c1 (single isomer, unassigned) [1147A (Isomer 2)]
IC50 (SARS-CoV2 Mpro): 2 to 10 µM | EC50 (229E Mpro): 10 to 30 µM

COc1cccc2[nH]c(C(=O)N3CC[C@H](c4ccccc4)[C@H]3C(=O)N[C@H](C#N)C[C@@H]3CCNC3=O)cc12 [Compound 163, (2S,3R)-N-((S)-1-cyano-2-((S)-2-oxopyrrolidin-3-yl)ethyl)-1-(4-methoxy-1H-indole-2-carbonyl)-3-phenylpyrrolidine-2-carboxamide]
IC50 (SARS-CoV2 Mpro): 2 to 10 µM | EC50 (229E Mpro): 10 to 30 µM

COc1cccc2[nH]c(C(=O)N[C@@H](Cc3cccnc3)C(=O)N[C@H](C#N)C[C@@H]3CCNC3=O)cc12 [Compound 191, N-[(1S)-2-[[(1S)-1-cyano-2-[(3S)-2-oxopyrrolidin-3-yl]ethyl]amino]-2-oxo-1-(3-pyridylmethyl)ethyl]-4-methoxy-1H-indole-2-carboxamide]
IC50 (SARS-CoV2 Mpro): 2 to 10 µM | EC50 (229E Mpro): > 30 µM

COc1cccc2[nH]c(C(=O)N3NCCC[C@H]3C(=O)N[C@H](C#N)C[C@@H]3CCNC3=O)cc12 [Compound 199]
IC50 (SARS-CoV2 Mpro): 10 to 30 µM | EC50 (229E Mpro): > 30 µM

COc1cccc2[nH]c(C(=O)N3C[C@H](C)C[C@H]3C(=O)N[C@H](C#N)C[C@@H]3CCNC3=O)cc12 [Compound 413]
IC50 (SARS-CoV2 Mpro): 2 to 10 µM | EC50 (229E Mpro): < 2 µM
